Consider two molecules from patent US20250138013A1, “SMALL MOLECULE INHIBITOR TARGETING A LEUKEMIC STEM CELL ASSOCIATED GENE FOR HIGH-RISK AML PATIENTS” (The Chinese University of Hong Kong, priority 2023, published 2025).

Entries after “also recorded” stand apart in the source; their conditions may differ.

For series [1], the system named is SLC7A11 mRNA expression in MOLM13-EV and MOLM13-SPINK2 cells. Description: qPCR of SLC7A11 after Nutlin-3a in MOLM13-EV and MOLM13-SPINK2 cells. The class given is cell-based. As to conditions: Nutlin-3a 1 μM, 48 hours and 72 hours. As to the method: Previously, p53 transcriptionally represses SLC7A11 expression, thereby playing an important pro-ferroptotic role. The data has shown that p53 pathway genes are inversely affected upon SPINK2 modulation (Tables S11 & S12). Based on the hypothesis that SPINK2 overexpression in MOLM13 cells might counteract the p53-mediated repression of SLC7A11, MOLM13-EV and MOLM13-SPINK2 cells are treated with the p53 activator, Nutlin-3a (1 μM), for 48 hours and 72 hours. […] Of note, the effects of Nutlin-3a could not be tested in KG1a cells, since they have a TP53 mutation which renders them insensitive to Nutlin-3a activity.
GFP-labelled lentiviruses are used for assessing the biological significance of SPINK2 in AML by overexpressing SPINK2 in OCIAML3 and MOLM13 cells (pRSC—SFFV-SPINK2-E2A-Puro-E2A-GFP-Wpre) and empty vector, EV (pRSC—SFFV-Puro-E2A-GFP-wpre) are provided. Transduction is performed in approximately 2×10^5 cells/ml at a multiplicity of infection (MOI) of 20 using Retronectin®-coated 6-well plates according to the manufacturer's instructions (Takara Bio Inc.) This is followed by puromycin selection (1 μg/ml) for at least seven days. Functional studies are then performed on cells as described and extra cells are cryopreserved.
Background: In qPCR the cycle at which signal appears reflects the starting amount.

Another series relates to GDM1 cells. The series can be described thus: Cell Titer-GLO cell viability assay, GDM1. Particulars: GDM1 (SPINK2high), 150 μM for 72 hours. In kind it is cell-based. How it is done:
(§1) The SMI is initially tested with increasing doses for its effect upon cell viability in KG1a cells. […] This dose is then tested on GDM1, MOLM13 and OCIAML3 cells.
(§2) Cells are treated with the SMIs and control (DMSO) for 72 hours and their viability is detected using the Cell Titer Glo® assay according to the manufacturer's instructions. Statistical analysis is performed using one-way ANOVA with Tukey's multiple comparisons test with Mean+SD of at least 2 independent experiments.
(§3) Cells are seeded into 96-well plates at a density of approximately 2×10^5 cells/ml and drugs are added at indicated concentrations. Cell viability is measured at indicated time points using Cell Titer-GLO® Luminescent Cell Viability Assay. For assessment of gene expression after drug treatment, cells are seeded in 6-well plates at approximately 4×10^5 cells/ml and drugs are added at indicated doses. RNA and/or protein is extracted 72 hours later. qPCR and Western Blot are then performed according to standard procedures to detect target gene and protein expression.
(Cellular ATP, detected with luciferase, serves as a proxy for viable cell number.)

The nature of series [2]: Solubility in DMSO and other solvents. The class given is physicochemical. An excerpt: In another embodiment, the SMI is screened via a structure-based virtual screening (SBVS) and selected from a group of bioactive molecules due to its efficient binding affinity based on its idock scores and its capacity to dissolve in at least one solvent selected from a group comprising of dimethyl sulfoxide (DMSO), water, ethanol or dimethylformamide (DMF).
To identify potential SPINK2-SMIs, Structure-based Virtual Screening (SBVS) is initially employed for in silico screening of a small-molecule library comprising 1.5 million compounds to identify bioactive molecules that bind to the targeting domain of SPINK2 (FIG. 16A).

Series [3] has as its system SPINK2 protein expression in GDM1 cells. The series can be described thus: Western blot of SPINK2 protein after SMI treatment, GDM1. The class given is cell-based. How it is done: as §1
(§4) Cells are harvested, washed in Phosphate-buffered saline (PBS) and lysed using Pierce™ IP Lysis Buffer. Protein concentration is measured using Pierce™ BCA Protein Assay Kit. Approximately 30 μg of whole cell lysates are mixed with 4× Laemmli Buffer and β-mercaptoethanol and denatured for 5 minutes at 95° C. Lysates are equally loaded onto and separated using freshly prepared polyacrylamide gels. Proteins are transferred onto 0.2 μm Immun-Blot® PVDF membranes using FLASHBlot transfer buffer. The membranes are then blocked for one hour at room temperature with 5% non-fat dry milk in TBS Tween™ 20 Buffer. This is followed by incubation with primary antibodies diluted in 5% bovine serum albumin (BSA) at 4° C. overnight. Primary antibody dilutions are as follows: SPINK2 (1:1000), ALCAM (1:10000), β-ACTIN (1:10000), GAPDH (1:2500). […]
(§5) Cells are seeded into 96-well plates at a density of approximately 2×10^5 cells/ml and drugs are added at indicated concentrations. Cell viability is measured at indicated time points using Cell Titer-GLO® Luminescent Cell Viability Assay. […]
Background: In western blotting, separated proteins are transferred to a membrane and probed.

Series [4] deals with SPINK2 protein expression in KG1a cells. The series can be described thus: Western blot of SPINK2 protein after SMI treatment, KG1a. In kind it is cell-based. How it is done: as §1, §4, §5
Another series has as its system KG1a cells. The series can be described thus: Cell Titer-GLO cell viability assay, KG1a. In kind it is cell-based. As to the method: as §1, §2, §3
Series [5] deals with STEAP3 mRNA expression in KG1a cells. Description: qPCR of SPINK2 target gene STEAP3 after SMI treatment, KG1a. The class given is cell-based. As to the method:
as §1, §3

Series [6] concerns SPINK2^high cells (KG1a and GDM1) vs. SPINK2^low cells (OCIAML3 and MOLM13). Description: Cytotoxicity compared between SPINK2high and SPINK2low cell lines (Cell Titer Glo). As to conditions: 72 h treatment, compared with SMI-2. In kind it is cell-based. As to the method:
as §2, §3

For series [7], the system named is SLC7A11 mRNA expression in KG1a cells. Description: qPCR of SPINK2 target gene SLC7A11 after SMI treatment, KG1a. In kind it is cell-based. As to the method: as §1, §3

As for `COc1ccc(C2=N[C@@H](c3ccc(Cl)cc3)[C@@H](c3ccc(Cl)cc3)N2C(=O)N2CCNC(=O)C2)c(OC(C)C)c1` [Nutlin-3a], in series [1], the “SLC7A11 mRNA expression” value was “reduced in MOLM13-EV cells to a significantly greater extent than in MOLM13-SPINK2 cells”.
`C[C@]12C(=O)N(c3cccc(C(=O)O)c3)C(=O)[C@H]1C1c3ccccc3C2c2ccccc21` [SMI, 3-[(15R,19S)-15-methyl-16,18-dioxo-17-azapentacyclo [6.6.5.02,7.09, 14.015,19]nonadeca-2,4,6,9,11,13-hexaen-17-yl]benzoic acid]: the “effect on cell viability” value in the series with GDM1 cells is reported as “significantly decreased cell viability”; in the series with KG1a cells (KG1a (SPINK2high), 150 μM for 72 hours), “significantly decreased cell viability”. Further, in series [2], the “solubility in DMSO” value was “soluble in DMSO”. The SPINK2 protein expression result in [3] and in series [4] was “decreased” each time. The cytotoxicity at 150 µM in the series with KG1a cells (Homo sapiens, KG-1a, KG1a cells, 150 μM, 72nd hour, read-out: reduction of cell viability) is ~50%. Further, the “STEAP3 mRNA expression” value in [5] is reported as “upregulation”. Further, the results for the “toxicity/specificity against SPINK2high vs SPINK2low cells” value in [6] and in series [6] (listed as SMI-5) were “selectively decreased viability” and “greater toxicity; also recorded: greater specificity”, respectively. Further, the “SLC7A11 mRNA expression” value in [7] is listed as “downregulation”.
